The values that follow come from patent US8084465B2, “Derivatives of pryidone and use thereof” (Shanghai Genomics, Inc., priority 2003, dated 2011).

For one data set, the system named is fibroblast. The data set is described as follows: MTT assay, proliferation of fibroblast cultured in vitro. The class given is cell-based. On the procedure:
The inhibitory effect of F351 on the proliferation of fibroblast cultured in vitro was tested using the following method. F351 was dissolved in 0.5% DMSO. The fibroblast was treated with F351 of different amount (FIG. 1 and FIG. 2) for 5 days. The agent was refreshed once every 48 hrs. Pirfenidone was used in parallel experiments in order to compare the effects of these two agents.
MTT assay: […] cell suspension was added into each well of a 96-well plate, 4 parallel wells per group. The concentration of the agent and the culture time remained unchanged. Then 10 μL 5 g/L MTT (3-(4,5-dimethylthiazol-2-yl)-2,5-diphenyltetrazolium bromide) was added to each well for another 4 hrs of culture. 100 uL DMSO was added to each well. Gently vortex to make a uniform mixture. After about 10 mins, OD values at 570 nm and 630 nm were measured by an enzyme linked immune detector (BIO RAD 550). The cell viability rate was calculated in accordance with the following formula: Viability rate=[(experimental well OD570−experimental well OD630)/(control well OD570−control well OD630)]×100% Inhibition rate (or proliferation rate)=100%−viability rate

Data set [1] deals with rat liver fibrosis model induced by DMN (dimethyl nitrosamine). The data set is described as follows: Rat liver fibrosis model induced by DMN, liver pathology. It counts as in vivo. On the procedure: (§1) A rat liver fibrosis model was established by induction with CCl4 and DMN (dimethyl nitrosamine)) respectively, and treated with F351 for 4 weeks, 8 weeks. The livers of the animal were harvested to observe the pathologic results. The method was as follows:
(§2) (a) Generating a carbon tetrachloride model (injected intraperitoneally with 40% CCl4 mixed with oil, 0.4 ml/100 g, twice per week, for 4 continuous weeks) and a dimethyl nitrosamine liver fibrosis model (injected intraperitoneally with 1% DMN, 10 mg/Kg, twice per week, for 8 continuous weeks).
(§3) (b) The animals of these two models were intragastrically administered with F351 from the 0 day of the model establishment, with the dose at 250 mg/Kg, once per day, for 4 or 8 continuous weeks.

In data set [2] the test system is rat liver fibrosis model induced by CCl4. The data set is described as follows: Rat liver fibrosis model induced by CCl4, liver pathology. Conditions: 4 weeks, 250 mg/Kg intragastrically once per day, model group S4-S6, P=0.001. The class given is in vivo. On the procedure: as §1, §2, §3
Data set [3] has as its system liver fibrosis model induced by DMN. Kind of data set: Mortality of rats in the DMN liver fibrosis model. The class given is in vivo, rat. Here is the method:
as §2, §3
(§4) The rat liver fibrosis models established by induction with CCl4 and DMN were treated with F351 in the same manner in Example 3. The body weight and mortality of the rates were observed.

In data set [4] the test system is liver fibrosis model induced by CCl4. The data set is described as follows: Mortality of rats in the CCl4 liver fibrosis model. Conditions: 250 mg/Kg once per day. It counts as in vivo. Here is the method:
as §2, §3, §4

Data set [5] relates to rat with liver fibrosis induced by DMN. The data set is described as follows: Serum transaminase (ALT) level in the DMN liver fibrosis model. The class given is in vivo. Conditions: DMN model + F351, week 4; DMN model group 74±18.25, control group 27±5.09; P<0.05. Here is the method:
as §2, §3
(§5) The rat liver fibrosis models established by induction with CCl4 and DMN were treated with F351 in the same manner in Example 3. The serum of the rats was extracted and the level of the serum transaminase was measured.

Data set [6] concerns rat with liver fibrosis induced by CCl4. The data set is described as follows: Serum transaminase (ALT) level in the CCl4 liver fibrosis model. Conditions: CCl4 model + F351, week 4; CCl4 model group 52±17.15, control group 27±5.09; P<0.05. It counts as in vivo. On the procedure: as §2, §3, §5

For the compound `Cc1ccc(=O)n(-c2ccc(O)cc2)c1` [F351, 5-methyl-1-(4-hydroxylphenyl)-2-(1H)-pyridone], in the data set with fibroblast (FIG. 2, versus Pirfenidone control), the “activity for inhibiting the fibroblast viability” value is listed as “higher than that of the Pirfenidone control”. For the same compound, the “inhibitory effect on the fibroblast” value in the data set with fibroblast (MTT assay, treated for 5 days, compared with Pirfenidone in parallel, FIG. 1 and FIG. 2) is given as “more significant than that of Pirfenidone”. Besides, the “liver lesion (hepatocyte necrosis, hemorrhage, collagen deposition, fibrosis)” value in data set [1] (week 4, 250 mg/Kg intragastrically once per day, versus model group, P<0.001) was “significantly reduced”. The “fibrosis around the sinus (pathologic results)” value in data set [1] (week 8, 250 mg/Kg intragastrically once per day, versus control group) is listed as “obviously better than the control group”. Besides, the “pathologic changes (fibrosis dimension around the central veins and the sinus)” value in data set [2] is on record as “obviously reduced”. The rats survived in data set [3] (week 4, 250 mg/Kg once per day, control group 7 of 25 rats survived) is on record as 24; in data set [3] (week 8, 250 mg/Kg once per day, control group 2 of 25 rats survived), 18. Also, in data set [4], the “mortality of the rats” value is listed as “did not increase the mortality”. In addition, the ALT serum level in data set [5] is recorded as 54±17.25; in data set [6], 45±17.68.
